Active and inactive are the calls of the source. No rule for the calls is given here.
Test system: virus-infected cells, CPE inhibition, dose response
Experiment: PubChem AID 806
Conditions: for EC90: measured here: EC90 CPE inhibition; for CC50: measured here: cytotoxicity, cell viability IC50

SMILES | EC50 | EC90 [µM] | CC50 [µM]
COCc1cc(=O)n2c(-c3ccccc3OC)n[nH]c2n1 | > 60 µM (inactive) | > 60 | > 60
CN(C)CCSc1nnc(-c2ccccc2)o1 | > 60 µM (inactive) | > 60 | > 60
CCOc1ccc(-c2nnc3ccc(SCC(=O)NCc4ccco4)nn23)cc1 | > 60 µM (inactive) | > 60 | > 60
O=c1[nH]c2ccccc2n1Cc1ccccc1 | > 60 µM (inactive) | > 60 | > 60
CCCCN(C(=O)Cn1nnc2ccccc21)C(C(=O)NCCOC)c1ccccc1 (centres undefined) | > 60 µM (inactive) | > 60 | > 60
N#CCCN1CCn2c1nc1ccccc12 | > 60 µM (inactive) | > 60 | > 60
COc1ccc(OC)c(-n2c(SCC(N)=O)nnc2-c2c[nH]c3ccccc23)c1 | > 60 µM (inactive) | > 60 | > 60
COc1ccc(OC)c(-n2c(SCC(=O)Nc3cc(C)on3)nnc2-c2c[nH]c3ccccc23)c1 | > 60 µM (inactive) | > 60 | > 60
CCOC(=O)c1cccc(NC(=O)CCS(=O)(=O)c2cccc3nsnc23)c1 | > 60 µM (inactive) | > 60 | > 60
Cc1cc(=O)n2c(-c3ccccc3C)n[nH]c2n1 | > 60 µM (inactive) | > 60 | > 60
Cc1cc(NC(=O)CSc2nnc(CNc3ccc(F)cc3)n2C2CCCCC2)no1 | 61.8 µM (inactive) | > 60 | > 60
COCCNC(=O)c1noc2c1CCc1cc(OC)ccc1-2 | > 60 µM (inactive) | > 60 | > 60
O=C(CCS(=O)(=O)c1cccc2nsnc12)NC1CCCCCC1 | > 60 µM (inactive) | > 60 | > 60
Cc1c(NC(=O)CSc2nnc3sc4ccccc4n23)c(=O)n(-c2ccccc2)n1C | > 60 µM (inactive) | > 60 | > 60
Cc1ccc(NC(=S)C2=C(O)c3sccc3N(C)S2(=O)=O)cc1 | 30.3 µM (inactive) | > 60 | > 60
CCCNC(=O)c1noc2c1CCc1ccccc1-2 | > 60 µM (inactive) | > 60 | > 60
O=Nc1c(O)n(Cc2cccc(Cl)c2)c2ccccc12 | > 60 µM (inactive) | > 60 | > 60
Cc1ccc(OCC(=O)Nc2ccc(-c3nnc(-c4ccco4)o3)cc2)cc1 | > 60 µM (inactive) | > 60 | > 60
COc1ccc(OC)c(-n2c(SCC(=O)NCc3ccco3)nnc2-c2c[nH]c3ccccc23)c1 | > 60 µM (inactive) | > 60 | > 60
CC1(C)Cc2c(c(N3CCOCC3)nc3sc4c(NN)ncnc4c23)CS1 | > 60 µM (inactive) | > 60 | 4.49
CCSc1nnc(-c2ccncc2)o1 | > 60 µM (inactive) | > 60 | > 60
CCOc1ccccc1NC(=O)c1ccc(NC(=O)c2ccco2)cc1 | > 60 µM (inactive) | > 60 | > 60
COCCNC(=O)C(c1ccccc1C)N(CCOC)C(=O)Cn1nnc2ccccc21 (centres undefined) | > 60 µM (inactive) | > 60 | > 60

SMILES | EC50 | EC90 [µM] | CC50 [µM]
O=C(c1cnn2c(C(F)F)cc(-c3ccccc3)nc12)N1CCOCC1 | > 60 µM (inactive) | > 60 | > 60
CC(=O)c1cccc(NC(=O)CCS(=O)(=O)c2cccc3nsnc23)c1 | > 60 µM (inactive) | > 60 | > 60
CC(C)(C)OC(=O)N[C@@H](Cc1ccccc1)c1nnc(SCC(=O)O)o1 | > 60 µM (inactive) | > 60 | > 60
Cc1nc2ccc(NC(=O)C3CCN(S(=O)(=O)c4cccs4)CC3)cc2s1 | > 60 µM (inactive) | > 60 | > 60
NC(=O)c1c(NC(=O)CSc2nnc(Cc3ccccc3)n2Cc2ccco2)sc2c1CCC2 | > 60 µM (inactive) | > 60 | > 60
O=C(CSc1ccc2nnc(-c3ccncc3)n2n1)NCc1ccco1 | > 60 µM (inactive) | > 60 | > 60
COc1ccc(NC(=O)C2CC(=O)OC23CCOC(C)(C)C3)cc1 (centres undefined) | > 60 µM (inactive) | > 60 | > 60
Cn1nc(C(=O)Nc2c(-c3ccccc3)nc3sccn23)c2ccccc2c1=O | > 60 µM (inactive) | > 60 | > 60
Cc1cc(NC(=O)c2noc3c2CCc2ccccc2-3)no1 | > 60 µM (inactive) | > 60 | > 60
O=C(O)c1ccc(CN2C(=O)CSC2=S)cc1 | > 60 µM (inactive) | > 60 | > 60
O=C(CCS(=O)(=O)c1cccc2nsnc12)NCc1ccccc1Cl | > 60 µM (inactive) | > 60 | > 60
COc1cccc(C2=NOC(C(=O)Nc3cc(C)nn3-c3ccccc3)C2)c1OC (centres undefined) | > 60 µM (inactive) | > 60 | > 60
Cc1nn2c(C(F)(F)F)cc(-c3ccc(Cl)cc3)nc2c1C(=O)N1CCOCC1 | > 60 µM (inactive) | > 60 | > 60
COCc1cc(=O)n2c(-c3ccc(C)cc3)n[nH]c2n1 | > 60 µM (inactive) | > 60 | > 60
O=C(c1cc(-c2ccc(Cl)cc2)n(-c2ccc(Cl)cc2Cl)n1)N1CCOCC1 | > 60 µM (inactive) | > 60 | > 60
CC(=O)Nc1cccc(NC(=O)c2cc3ccccc3o2)c1 | > 60 µM (inactive) | > 60 | > 60
CC(C)(C)NC(=O)c1cccc(NC(=O)c2ccc(NC(=O)c3ccco3)cc2)c1 | > 60 µM (inactive) | > 60 | > 60
COC(=O)c1ccc(CSc2nnc3n(Cc4ccccc4OC)c(=O)c4ccccc4n23)o1 | > 60 µM (inactive) | > 60 | > 60
Cc1cc2cc(CNC(=O)c3ccc(S(=O)(=O)N(C)C)cc3)ccc2n1C | > 60 µM (inactive) | > 60 | > 60
O=C(c1cc(-c2ccc(Cl)cc2)n(-c2ccc(Cl)c(Cl)c2)n1)N1CCOCC1 | > 60 µM (inactive) | > 60 | 3.62
Cc1cc(C)n(S(=O)(=O)/C=C/c2ccccc2)n1 | 56.5 µM (inactive) | > 60 | > 60
O=C1CSC(=S)N1Cc1cccnc1 | > 60 µM (inactive) | > 60 | 50.8
CCCCCn1c(=O)c(C(=O)Nc2c(C)n(C)n(-c3ccccc3)c2=O)c(O)c2ccccc21 | > 60 µM (inactive) | > 60 | > 60

SMILES | EC50 | EC90 [µM] | CC50 [µM]
Cc1ccc(CNC(=O)CCS(=O)(=O)c2cccc3nsnc23)cc1 | > 60 µM (inactive) | > 60 | > 60
O=C(Cc1ccccc1)Nc1ccc(-c2nnc(-c3ccco3)o2)cc1 | > 60 µM (inactive) | > 60 | > 60
O=C(CCS(=O)(=O)c1cccc2nsnc12)NC1CCCCC1 | > 60 µM (inactive) | > 60 | > 60
Cc1ccccc1NC(=O)c1ccc(NC(=O)c2ccco2)cc1 | > 60 µM (inactive) | > 60 | > 60
COC(=O)CSc1nnc(-c2cccnc2)o1 | > 60 µM (inactive) | > 60 | > 60
COc1ccccc1Nc1ncnc2c1cnn2-c1cccc(C)c1 | > 60 µM (inactive) | > 60 | > 60
COc1ccccc1NC(=O)C1CCCCN1S(=O)(=O)c1ccc(F)cc1 (centres undefined) | > 60 µM (inactive) | > 60 | > 60
CCS(=O)(=O)Nc1cccc(-c2nc3cccnc3s2)c1C | > 60 µM (inactive) | > 60 | > 60
COc1ccc(-c2nnc(SCC#N)o2)cc1 | > 60 µM (inactive) | > 60 | 19.7
Cc1nnc(SC(=O)N2c3ccccc3Sc3ccccc32)s1 | > 60 µM (inactive) | > 60 | > 60
Cc1cc(C(=O)Nc2c(C)n(C)n(-c3ccccc3)c2=O)cs1 | > 60 µM (inactive) | > 60 | > 60
CC(=O)Nc1ccc(Nc2ncnc3c2cnn3-c2ccccc2)cc1 | > 60 µM (inactive) | > 60 | > 60
COc1ccc(C2NC(=O)NC3=C2CCc2ccccc23)cc1 (centres undefined) | 3.6 µM | > 60 | > 60
COC(=O)Nc1ccc(S(=O)(=O)N2CCCCC2C(=O)NCc2ccco2)cc1 (centres undefined) | > 60 µM (inactive) | > 60 | > 60
Cc1ccc(NC(=O)c2noc3c2CCc2ccccc2-3)cc1 | > 60 µM (inactive) | > 60 | > 60
CC(C)CCNC(=O)C1CCCCN1S(=O)(=O)c1ccc(F)cc1 (centres undefined) | > 60 µM (inactive) | > 60 | > 60
O=C(NCc1ccco1)C1CCCCN1S(=O)(=O)c1ccc(F)cc1 (centres undefined) | > 60 µM (inactive) | > 60 | > 60
COc1ccc(S(=O)(=O)Nc2ccc(C)cc2)cc1N(C)S(=O)(=O)c1ccc(Cl)cc1 | > 60 µM (inactive) | > 60 | > 60
CC1(C)Cc2c(c(N3CCOCC3)nc3sc4c(=O)[nH]cnc4c23)CS1 | > 60 µM (inactive) | > 60 | > 60
CC(C)NC(=O)CSc1nnc2sc3ccccc3n12 | > 60 µM (inactive) | > 60 | > 60
Cc1c(C(=O)Nc2ccncc2)oc2ccccc12 | > 60 µM (inactive) | > 60 | > 60
O=C1Cn2c(nc3ccccc32)N1c1ccccc1F | > 60 µM (inactive) | > 60 | > 60

From PubChem BioAssay AID806 (SRMLSC, 2007)
